Data taken from patent US7220563B2 (priority 2002, dated 2007).

Tested on: recombinant GAO
Format: biochemical

Molecule | effect on activation of the recombinant GAO | other results
O=C(O)CN(CCN(CC(=O)O)CC(=O)O)CC(=O)O [EDTA] | did not affect activation | 
nickel | did not affect activation | 
cobalt | did not affect activation | 
iron | did not affect activation | 
manganese | did not affect activation | 
O=S(=O)([O-])[O-].[Cu+2] [CuSO4, copper sulfate] |  | concentration sufficient to activate recombinant GAO: 0.1 mM; effect on GAO activity: slightly inhibited; preferred concentration for activating crude enzyme solution: 0.4 mM
